Laboratory results as given in patent publication US4464359A, “(2'-5')-Oligo (3'-deoxyadenylate) and derivatives thereof” (Research Corporation, priority 1981, dated 1984).
“And” between values parts separate entries of the source, which are not always exact repeats. Identical values can stand only once. Like-named read-outs stand apart in the source and are kept apart here.

Assays:
Epstein-Barr Virus (EBV) [1] = assay: EBV-induced stimulation of DNA synthesis in EBV infected human lymphocytes; type: cell-based
Description: (§1) Heparinized whole venous blood was obtained from the umbilical cords of newborn infants (human umbilical cord lymphocytes) or EBV-seronegative volunteers (peripheral blood lymphocytes) in collaboration with Temple University Hospital, Philadelphia, PA. Mononuclear leukocytes were prepared by the Ficoll-Hypaque method of Boyum (Scand. J. Clin. Invest. 21 (Sup. 97), 77 (1968)) and were cultured in RPMI-1640 supplemented with 20% fetal bovine serum as described (Henderson et al, Virology 76, 152 (1977)). The lymphoblastoid cell lines BJAB and RAJI were gifts of Drs. Werner and Gertrude Henle, Children's Hospital, University of Pennsylvania, Philadelphia, PA, and were cultured as described above. The lymphoblastoid line C85-5C was obtained by transformation of human umbilical cord lymphocytes following infection with EBV and maintained as described aove. Cultured mouse L cells were maintained in minimum essential medium (Eagle) supplemented with Earle's salts, L-glutamine and 6% fetal bovine serum. Interferon-treated mouse L cells were supplied by Dr. Esther H. Chang, National Cancer Institute, NIH. […] EBV stocks were maintained at -70° C. until use. Human umbilical cord lymphocytes and peripheral blood lymphocytes were infected as described (Henderson et al, Supra).

[2] = test system: C85-5C lymphoblastoid cell line; assay: Cytotoxicity by colony formation in microtiter plates, C85-5C; type: cell-based, human; details: treatment for 7 days
Description: as §1, with “Human umbilical cord lymphocytes and peripheral blood lymphocytes were infected as described (Henderson et al, Supra).” left out
(§2) Therefore, the effect of these agents on colony formation in closely related lymphoblastoid cell lines was determined (Table 3).

[3] = test system: lymphoblastoid cell lines; assay: Lymphoblast colony formation / cytotoxicity, cell line not given; type: cell-based
Description: as §1, with “Mononuclear leukocytes were prepared by the Ficoll-Hypaque method of Boyum (Scand. J. Clin. Invest. 21 (Sup. 97), 77 (1968)) and were cultured in RPMI-1640 supplemented with 20% fetal bovine serum as described (Henderson et al, Virology 76, 152 (1977)).” left out
as §2

uninfected lymphocytes = assay: DNA synthesis of uninfected lymphocytes; type: cell-based, human
Description: as §1
(§3) The antiviral properties of 5'-dephosphorylated "core" (2'-5')A(pA)2, (2'-5')A(pA)3 and (2'-5')3'dA-(p3'dA)2 were compared to the antiviral properties of IFN-α and IFN-β. The (2'-5')oligonucleotides and interferons inhibited Epstein-Barr Virus (EBV)-induced stimulation of DNA synthesis in EBV infected human lymphocytes. […] The "core" 3'-deoxy (2'-5') oligonucleotide analog inhibited EBV-induced morphological transformation of lymphocytes much the same as "core" (2'-5')A(pA)2 and (2'-5')A(pA)3.

Epstein-Barr Virus (EBV) [4] = assay: EBV-induced morphological transformation of lymphocytes; type: cell-based; details: absence of interferon
Description: as §1, §3

[5] = test system: Herpes Simplex Virus Type 1 (HSV-1); assay: Infected centers assay: HSV-1 exposed leukocytes plated onto human foreskin fibroblast monolayers, cytopathic effects (cpe); type: cell-based; details: for development of cpe from HSV-1 infected leukocytes / HSV-1 replication: 72 hr incubation, human foreskin fibroblast monolayers
Description: Therefore, we employed an infected centers assay utilizing lymphocytes to determine the ability of (2'-5') oligonucleotides to inhibit HSV-1. After incubation for 72 hr with or without (2'-5')oligonucleotides, leukocytes exposed to HSV-1 were plated onto human foreskin fibroblast monolayers (Table 2).

[6] = test system: BJAB lymphoblastoid cell line; assay: Cytotoxicity by colony formation in microtiter plates, BJAB; type: cell-based; details: for Concentration at which colony formation was inhibited by greater than 50 percent: treatment for 7 days
Description: as §1, §2

[7] = test system: Raji lymphoblastoid cell line; assay: Cytotoxicity by colony formation in microtiter plates, Raji; type: cell-based; details: for Concentration at which colony formation was inhibited by greater than 50 percent: treatment for 7 days
Description: as §1, §2

[8] = Stability (hydrolysis) in HeLa cell extracts; type: in vitro ADME; details: 500 μM; cellulose tlc (solvents A and B)
Description: FIG. 2 is a stability representation of (2'-5')p3 A(pA)n and (2'-5')p3 3'dA(p3'dA)n in HeLa cell extracts.
The stability of (2'-5')ppp3'dA(p3'dA)n in HeLa cell extracts was compared to that of (2'-5')pppA(pA)n. […] With 500 μM (2'-5')pppA(pA)n, there was a 50% hydrolysis in 45 min as determined by DEAE cellulose chromatography; with 500 μM authentic core analog, (2'-5')3'dA(p3'dA)2, there was no hydrolysis as determined by cellulose tlc (solvents A and B). Neither cordycepin nor 3'dAMP was detected. The lack of hydrolysis of the analog may be similar to the lack of hydrolysis of (3'-5')2'-deoxyoligonucleotides by the 2',5'-phosphodiesterase.

Row | Compound | EBV-induced stimulation of DNA synthesis (Epstein-Barr Virus (EBV) [1]) | DNA synthesis of uninfected lymphocytes (uninfected lymphocytes) | EBV-induced morphological transformation of lymphocytes (Epstein-Barr Virus (EBV) [4]) | cpe at given number of HSV-exposed leukocytes per cell ([5]; 10 μM, 2 × 10^5 leukocytes) | cpe at given number of HSV-exposed leukocytes per cell ([5]; 10 μM, 2.2 × 10^4 leukocytes) | cpe at given number of HSV-exposed leukocytes per cell ([5]; 10 μM, 6.7 × 10^4 leukocytes) | cpe at given number of HSV-exposed leukocytes per cell ([5]; 50 μM, 2 × 10^5 leukocytes) | cpe at given number of HSV-exposed leukocytes per cell ([5]; 50 μM, 2.2 × 10^4 leukocytes) | cpe at given number of HSV-exposed leukocytes per cell ([5]; 50 μM, 6.7 × 10^4 leukocytes) | cpe at given number of HSV-exposed leukocytes per cell ([5]; 75 μM, 2 × 10^5 leukocytes) | cpe at given number of HSV-exposed leukocytes per cell ([5]; 75 μM, 2.2 × 10^4 leukocytes) | cpe at given number of HSV-exposed leukocytes per cell ([5]; 75 μM, 6.7 × 10^4 leukocytes) | cpe at given number of HSV-exposed leukocytes per cell ([5]; 150 μM, 2 × 10^5 leukocytes) | cpe at given number of HSV-exposed leukocytes per cell ([5]; 150 μM, 2.2 × 10^4 leukocytes) | cpe at given number of HSV-exposed leukocytes per cell ([5]; 150 μM, 6.7 × 10^4 leukocytes) | development of cpe from HSV-1 infected leukocytes / HSV-1 replication [5] | Concentration at which colony formation was inhibited by greater than 50 percent [6] [µM] | Concentration at which colony formation was inhibited by greater than 50 percent [7] [µM] | concentration found toxic (inhibition of colony formation) [6] | concentration found toxic (inhibition of colony formation) [7] | also measured
1 | IFN-α | inhibited |  |  |  |  |  |  |  |  |  |  |  |  |  |  |  |  |  |  |  | Concentration at which colony formation was inhibited by greater than 50 percent [2]: > 1000 U/ml; cytotoxicity / effect on lymphoblast colony formation [3]: no appreciable effect
2 | Nc1ncnc2c1ncn2[C@@H]1O[C@H](COP(=O)(O)O[C@@H]2[C@H](O)[C@@H](COP(=O)(O)O[C@@H]3[C@H](O)[C@@H](COP(=O)(O)O[C@@H]4[C@H](O)[C@@H](CO)O[C@H]4n4cnc5c(N)ncnc54)O[C@H]3n3cnc4c(N)ncnc43)O[C@H]2n2cnc3c(N)ncnc32)[C@@H](O)[C@H]1O [(2'-5')A(pA)3, adenylyl(2'-5')adenylyl(2'-5')-adenylyl (2'-5')adenosine] | potent inhibitors | potent inhibitors | inhibited | ++ | 0 | + | + | 0 | 0 | ++ | 0 | 0 | + | 0 | 0 | inhibited the development of cpe | 150 | 50 |  |  | 
3 | Nc1ncnc2c1ncn2[C@@H]1O[C@H](COP(=O)(O)O[C@@H]2C[C@@H](COP(=O)(O)O[C@@H]3C[C@@H](CO)O[C@H]3n3cnc4c(N)ncnc43)O[C@H]2n2cnc3c(N)ncnc32)C[C@H]1O [(2'-5')3'dA(p3'dA)2, 3'-deoxyadenylyl (2'-5')3'-deoxyadenylyl(2'-5')3'-deoxyadenosine] | inhibited only viral-induced DNA synthesis | inhibited only viral-induced DNA synthesis | inhibited | +++ | + | ++ | ++ | + | ++ | ++ | 0 | + |  | 0 |  | less effective in inhibiting the development of cpe | > 300 | > 300 | no toxicity | no toxicity | hydrolysis in HeLa cell extracts [8]: no hydrolysis; concentration found toxic (inhibition of colony formation) ([6]; listed as (2'-5')2'dA(p3'dA)3): > 300 µM; concentration found toxic (inhibition of colony formation) ([7]; listed as (2'-5')2'dA(p3'dA)3): > 300 µM
4 | Nc1ncnc2c1ncn2[C@@H]1O[C@H](COP(=O)(O)O[C@@H]2[C@H](O)[C@@H](COP(=O)(O)O[C@@H]3[C@H](O)[C@@H](CO)O[C@H]3n3cnc4c(N)ncnc43)O[C@H]2n2cnc3c(N)ncnc32)[C@@H](O)[C@H]1O [(2'-5')A(pA)2, adenylyl-(2'-5')adenylyl(2'-5')adenosine] | potent inhibitors | potent inhibitors | inhibited | +++ | 0 | ++ | ++ | 0 | ++ | ++ | 0 | 0 | + | 0 | 0 | inhibited the development of cpe | 150 to 300 | 300 | 150 to 300 µM and 300 µM | 150 to 300 µM and 300 µM | 
